Test system: BLIS M18 and K12
Test: Comparison of foaming agents: inhibition on agar plates
Type: cell-based, Streptococcus salivarius
Conditions: 10 μL spotted on CABK12 and BaCa agar plates, 37° C. 5% CO2, 24 hrs
Description: Samples were prepared by • 1. mixing 1.1 g of BLIS M18 with 9.9 g of phosphate buffered saline (PBS) for 5 min and diluting by 1 in 10 with PBS • 2. adding to CABK12 and BaCa agar plates • 3. spotting 10 μL of foaming agent to plates and incubating at 37° C. 5% CO2 for 24 hrs, • 4. determining inhibition

**Q.** With `CCCCCCCC/C=C\CCCCCCCC(=O)OCCOCC(OCCO)C1OCC(OCCO)C1OCCO` (stereo not shown) [Polysorbate 80] as the compound, how does the “Inhibitory to BLIS M18 and K12” value read?
**A.** No

**Q.** Lauryl glucoside was tested. Which “Inhibitory to BLIS M18 and K12” value did it give?
**A.** Yes

**Q.** `CCCCCCCCCCO[C@@H]1O[C@H](CO)[C@@H](O)[C@H](O)[C@H]1O` [Decyl Glucoside] was tested. Which “Inhibitory to BLIS M18 and K12” value did it give?
**A.** Yes

**Q.** Which “Inhibitory to BLIS M18 and K12” value does the source give for `CCCCCCCCCCCCOS(=O)(=O)[O-].[Na+]` [Sodium Lauryl Sulphate] here?
**A.** Yes

**Q.** With Coco Glucoside as the compound, how does the “Inhibitory to BLIS M18 and K12” value read?
**A.** Yes

**Q.** How did the “Inhibitory to BLIS M18 and K12” value turn out when `CCCCCCCCO[C@@H]1O[C@H](CO)[C@@H](O)[C@H](O)[C@H]1O` [Caprylyl glucoside] was run?
**A.** Yes

**Q.** For Sodium Cocyl Isethionate, which “Inhibitory to BLIS M18 and K12” value is on record?
**A.** Yes

Reference: patent US20240115629A1, “ORAL COMPOSITION” (BLIS TECHNOLOGIES LIMITED, priority 2021, published 2024)
